Patent US20110105393A1, “METHODS FOR PROMOTING STEM CELL PROLIFERATION AND SURVIVAL” (priority 2007, published 2011)

Columns and labels:
Notch receptor = Notch receptor cleavage (activation) in NSC cultures; type: cell-based, mouse
Description: (§1) Cell culture: E13.5 cortical embryonic mouse CNS stem cells were grown as previously described (Johe, et al., Genes Dev 10, 3129-40, 1996). Cells were expanded in serum-free DMEM/F12 medium with N2 supplement and FGF2 (20 ng/ml) for 5 days under 5% oxygen conditions and were re-plated fresh or from frozen stocks at 1,000-10,000 cells per cm^2. FGF2 was included throughout the studies, unless otherwise stated. Adult rat (3-6 months old) or adult mouse (2-4 months old) SVZ NSC cultures were grown in the same medium as the fetal cultures.
Pharmacological treatments: Unless otherwise stated, the following concentrations were used: Dll4 and Ang-2 (in vitro, 500 ng/ml; in vivo 12.5 μg as a single injection), FGF2 (in vitro, 20 ng/ml), JAK inhibitor (in vitro, 200 nM; in vivo, 250 ng as a single injection), insulin (in vitro, 25 μg/ml; in vivo, 40 μg as a single injection), DAPT (1 μM), Fluorogold (0.5 μg). For the survival assays, compounds were added daily and Notch ligands every 2 days for the duration of the experiment. For the effects of kinase inhibitors on Notch activation, cells were pre-incubated for 1 h prior to Notch activation.
It was previously shown that in NSCs Notch activation leads to rapid phosphorylation of Akt (Androutsellis-Theotokis, A. et al., Nature 442, 823-6, 2006), a mediator of insulin signalling (Cantley, Science 296, 1655-7, 2002). […] Activation of the Notch receptor by addition of insulin or Dll4 was inhibited by DAPT, a γ-secretase inhibitor that blocks Notch cleavage. […] Insulin maintained STAT3-Ser727 phosphorylation levels, and acutely (1-h) induced it following a 16-h insulin withdrawal phase (FIG. 1c).

TH+ dopaminergic neurons = assay: Tyrosine hydroxylase immunohistochemistry in striatum and substantia nigra, 6OHDA model; type: in vivo, rat; conditions: % ipsi- vs. contra-lateral TH optical density (FIG. 13b)
Description: Pharmacological treatments.
Immunohistochemistry: Under deep anesthesia, animals were perfused transcardially with a rinse of saline, followed by 4% formaldehyde fixative (pH 7.4). Brains were removed immediately, stored in the fixative solution overnight and then in 30% sucrose for 3 days. Brains were frozen-sectioned at 16 μm. Immunohistochemical detection of BrdU and Hes3 was performed with an antigen-retrieval step (sections were boiled in 0.02M citrate, pH 6.0 in a microwave for 5 min, washed 3 times with distilled water, and incubated for 45 min in 2M HCl, at room temperature).
To investigate the clinical potential of this treatment approach, the compounds were used in an animal model of Parkinson's disease. Adult rats were lesioned by intra-striatal 6-OH-DA (Przedborski, S. et al., Neuroscience 67, 631-47, 1995). After two weeks, a single injection of the compounds was administered in the lateral ventricle ipsilateral to the lesion. Amphetamine-induced rotations were measured bi-weekly throughout the experiment. Thirteen weeks after treatment they were given a single injection of fluorogold in the striatum to label the […] dopaminergic projection.
Immunohistochemistry: Under deep anesthesia, animals were perfused transcardially with a rinse of saline, followed by 4% formaldehyde fixative (pH 7.4). […]

mTOR = mTOR phosphorylation in NSC cultures (Western blot); type: cell-based, mouse
Description: as §1
Fetal NSCs in culture express Ang-1, and treatment (2 days) with Dll4 maintained it whereas CNTF reduced it. Ang-2 expression was maintained under these conditions. […] Ang-2 induced mTOR and STAT3-S727 phosphorylation, unlike Ang-1 (FIG. 2a). Ang-1, however, induced Akt phosphorylation.
Three characterized Tie-2 receptor antibodies were used to determine if the Tie-2 receptor was expressed in the immature neural precursor cells found in the SVZ of the adult brain. When ligand is bound, the Tie-2 receptor becomes phosphorylated. An antibody that recognizes the activated receptor (RnD Systems, AF2720) and another antibody that binds to a distinct site (Santa Cruz, sc-324) identified many positive cells in the subventricular zone of the adult rat brain. In regions that were more distant from the ventricle, Tie-2 was expressed predominantly on blood vessels and endothelial cells reacted with antibodies against the activated receptor. Precursor cells that proliferate in vitro can be readily derived from the fetal and adult brain. The homogeneity of these cell populations in attached culture and their potential to generate neurons and glia is supported by clonal analysis. […] This colony number assay measured the survival of precursor cells that could differentiate into neurons and glia (See, Table 1).

Substance | Notch activation (Notch receptor; acute (1 h) treatment after insulin withdrawal for 2 days) | cleavage (activation) of the Notch receptor (Notch receptor; treatment of NSC cultures) | TH+ signal in the lesioned striatum (TH+ dopaminergic neurons) | mTOR phosphorylation (mTOR; NSC cultures, 0.5 μg/ml (FIG. 2a, Example 3)) | effect on mTOR (mTOR; Western blots, fetal neural cells (FIG. 10a, Example 9)) | pathology associated with the 6OHDA lesion (single intraventricular injection 2 weeks after lesion) | risk of bleeding (summary of in vivo treatments)
insulin: insulin (Sigma, 19278), growth factor | induced Notch activation | induced cleavage | – | – | – | – | –
Dll4: Notch ligand Delta-like 4; mouse Dll4 (1389-D4) from R&D | – | – | increase | – | – | – | –
Ang-2: human angiopoietin-2 (623-AN) from R&D; antagonist for angiopoietin-1 at Tie2 | – | – | increase | induced | no effect | hemorrhage and an enlarged ventricle | increases the risk of bleeding
